Counter-ions that a name gives are not always drawn. Like-named read-outs stand apart in the source and are kept apart here.
Target: T1, m1 muscarinic receptor (Rattus norvegicus, UniProt P08482)
T1 construct: expressed in transfected cells; host or cells: A9 L cells (mouse fibroblast line)
T1 sequence (P08482 1-460): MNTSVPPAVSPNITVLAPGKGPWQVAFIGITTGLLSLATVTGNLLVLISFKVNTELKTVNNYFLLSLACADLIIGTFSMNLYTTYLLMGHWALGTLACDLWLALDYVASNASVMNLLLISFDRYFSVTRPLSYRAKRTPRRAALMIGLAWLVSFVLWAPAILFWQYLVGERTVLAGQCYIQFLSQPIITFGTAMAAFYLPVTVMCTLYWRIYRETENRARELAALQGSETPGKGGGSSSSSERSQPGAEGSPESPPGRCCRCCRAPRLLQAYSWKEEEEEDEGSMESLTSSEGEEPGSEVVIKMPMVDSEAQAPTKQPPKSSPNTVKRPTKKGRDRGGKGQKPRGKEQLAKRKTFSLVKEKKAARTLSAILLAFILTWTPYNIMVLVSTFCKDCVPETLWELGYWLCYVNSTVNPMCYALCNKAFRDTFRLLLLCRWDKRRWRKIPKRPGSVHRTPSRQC
Assay: IP hydrolysis in A9 L cells cloned with the genetic m1 muscarinic receptor
Assay type: cell-based, human and rat
Settings: for Emax: A9L-m1, 0.75 h, read-out: % PI (efficacy); for Emax / % PI (efficacy): percentage of total [3H]IP accumulated in the presence of 100 µM carbachol stimulation, 37°C for 45 min; for EC50: IP hydrolysis, seven point curves, three separate experiments
Description: IP hydrolysis in A9 L cells cloned with the genetic m, muscarinic receptor: A9 L cells transfected with human and rat m, muscarinic receptors (Dörje et al., 1991; Jones et al., 1988), were cultured to confluence in 75-ml flasks containing Dulbecco's modified essential media. Cells were prelabeled with 1 µCi/ml of myo(2-[^3H]inositol (Amersham Inc., 16.3 Ci/mmol) for 48 hr before assaying. On the day of assay, cells were detached using a 30-sec exposure to 0.25% trypsin in 1 mM EDTA. The cells were collected by centrifugation (300 x g for 5 min) and resuspended in oxygenated HEPES buffer containing 10 mM LiCl (NaCl 142 mM, KCl 5.6 mM, CaCl2 2.2 mM, MgCl2 1 mM, NaHCO3 3.6 mM, D-glucose 5.6 mM and Na^+ HEPES 30 mM, pH 7.4). Cells were incubated at 37°C for 45 min in the presence of varying concentrations of test compounds. Total IP hydrolysis was determined using the method of Schoepp and Johnson (1988). […] Half-maximal (EC50) values were determined from the mean (±S.D.) of seven point curves determined from three separate experiments.

Compound | Emax | EC50 (read-out: EC50) | EC50 (EC50, nM) | % PI (efficacy) (45 min) | % PI (efficacy)
CC(C)C(C#Cc1ccsc1)Oc1nsnc1C1CN2CCC1C2 (mixture of isomers) [Compound 16, Exo (+-) 3-(3-(1-(3-Thienyl)-4-methyl-1-pentyn-3-yloxy)-1 ,2,5-thiadiazol-4-yl)-1-azabicyclo[2.2.1]heptane, (+)-tartrate] | 56% | 14 nM |  |  | 
C(#Cc1ccccc1)COc1nsnc1[C@H]1CN2CC[C@@H]1C2 (racemic) [Compound 1, Endo (+-) 3-(3-(3-Phenyl-2-propyn-1-yloxy)-1,2,5-thiadiazol-4-yl)-1-azabicyclo[2 2.1]heptane,(+)--tartrate] | 80% | 210 nM |  |  | 
Fc1ccc(C#CCOc2nsnc2[C@H]2CN3CC[C@@H]2C3)cc1 (racemic) [Compound 2, Endo (+-) 3-(3-(3-(4-Fluorophenyl)-2-propyn-1-yloxy)-1,2,5-thiadiazol-4-yl)-1-azabicyclo[2.2.1]heptane,(+)-tartrate] | 74% | 1800 nM |  |  | 
C(#Cc1ccccc1)COc1nsnc1C1CN2CCC1C2 (racemic) [Compound 13, Exo (+-) 3-(3-(3-Phenyl-2-propyn-1-yloxy)-1.2.5-thiadlazol-4-yl)-1-azabicyclo[2 2.1]heptane, (+)-tartrate] | 100% | 0.7 nM |  |  | 
C(#Cc1ccccc1)COc1nsnc1C1CN2CCC1CC2 (racemic) [Compound 53, (+-)3-(3-(3-Phenyl-2-propyn-1-yloxy)-1,2,5-thiadiazol-4-yl)-1-azabicyclo[2.2.2]octane, oxalate] |  |  | 13 nM |  | 
Fc1ccc(C#CCOc2nsnc2C2CN3CCC2CC3)cc1 (racemic) [Compound 54, (+-) 3-(3-(3-(4-Fluorophenyl)-2-propyn-1-yloxy)-1,2,5-thiadiazol-4-yl)-1-azabicyclo[2.2.2]octane, oxalate] |  | 224 nM |  |  | 
Fc1ccc(C#CCOc2nsnc2[C@H]2CN3CC[C@@H]2C3)cc1 (single isomer, unassigned) [Compound 3, Endo (α)-3-(3-(3-(4-Fluorophenyl)-2-propyn-1-yloxy)-1.2.5-thiadiazol-4-yl)-1-azabicyclo[2.2.1]heptane.(+)-tartrate] | 81% | 95 nM |  |  | 
C(#Cc1ccccc1)COc1nsnc1[C@H]1CN2CC[C@@H]1C2 (single isomer, unassigned) [Compound 4, Endo (α)-3-(3-(3-Phenyl-2-propyn-1-yloxy)-1,2,5-thiadiazol-4-yl)-1-azabicyclo[2.2.1]heptane, (+)-tartrate] |  | 159 nM |  | 77% | 
COc1cccc(C#CCOc2nsnc2[C@H]2CN3CC[C@@H]2C3)c1 (single isomer, unassigned) [Compound 5, Endo (α)-3-(3-(3-(3-Methoxyphenyl)-2-propyn-1-yloxy)-1,2,5-thiadiazol-4-yl)-1-azabicyclo[2.2.1]heptane, (+)-tartrate] |  | 42 nM |  | 73% | 
C(#Cc1ccsc1)COc1nsnc1[C@H]1CN2CC[C@@H]1C2 (single isomer, unassigned) [Compound 7, Endo (α)-3-(3-[3-(3-Thienyl)-2-propyn-1-yloxy]-1,2,5-thiadiazol-4-yl)-1-azabicyclo[2.2 1]heptane, (+)-tartrate] | 108% | 380 nM |  |  | 
C(#Cc1cccs1)COc1nsnc1[C@H]1CN2CC[C@@H]1C2 (single isomer, unassigned) [Compound 8, Endo (α)-3-(3-(3-(2-Thienyl)-2-propyn-1-yloxy)-1,2,5-thiadiazol-4-yl)-1-azabicyclo[2 2 1]heptane. (+)-tartrate] | 91% | 670 nM |  |  | 
Fc1ccc(C#CCOc2nsnc2[C@H]2CN3CC[C@@H]2C3)cc1 (single isomer, unassigned) [Compound 9, Endo (β)-3-(3-(3-(4-Fluorophenyl)-2-propyn-1-yloxy)-1.2.5-thiadiazol-4-yl)-1-azabicyclo[2 2.1]heptane, (-)-tartrate] |  | 38 nM |  | 68% | 
COc1cccc(C#CCOc2nsnc2[C@H]2CN3CC[C@@H]2C3)c1 (single isomer, unassigned) [Compound 10, Endo (β)-3-(3-(3-(3-Methoxyphenyl)-2-propyn-1-yloxy)-1,2,5-thiadiazol-4-yl)-1-azabicyclo[2.2.1]heptane, (-)-tartrate] | 57% | 75 nM |  |  | 
C(#Cc1ccccc1)COc1nsnc1[C@H]1CN2CC[C@@H]1C2 (single isomer, unassigned) [Compound 11, Endo (β)-3-(3-(3-Phenyl-2-propyn-1-yloxy)-1,2,5-thiadiazol-4-yl)-1-azabicyclo[2.2.1]heptane, (+)-tartrate] | 64% | 98 nM |  |  | 
C(#Cc1ccccc1)CSc1nsnc1[C@@H]1CN2CCC[C@H]1C2 [Compound 20, Endo (5R,6S)-6-(3-(3-Phenyl-2-propyn-1-ylthio)-1,2,5-thiadiazol-4-yl)-1-azabicyclo[3,2 1]octane, (+)-tartrate] | 98% | 1 nM |  |  | 
Fc1cccc(C#CCSc2nsnc2[C@@H]2CN3CCC[C@H]2C3)c1 [Compound 21, Endo (5R,6S)-6-(3-(3-(3-Fluorophenyl)-2-propyn-1-ylthio)-1,2,5-thiadiazol-4-yl)-1-azabicyclo[3.2.1]octane, (+)-tartrate] | 67% | 105 nM |  |  | 
C(#Cc1ccsc1)CSc1nsnc1[C@@H]1CN2CCC[C@H]1C2 [Compound 24, Endo (5R,6S)-6-(3-(3-(3-Thienyl)-2-propyn-1-ylthio)-1,2,5-thiadiazol-4-yl)-1-azabicyclo[3.2.1]octane, (+)-tartrate] | 105% | 300 nM |  |  | 
C(#Cc1cccs1)CSc1nsnc1[C@@H]1CN2CCC[C@H]1C2 [Compound 25, Endo (5R,6S)-6-(3-(3-(2-Thienyl)-2-propyn-1-ylthio)-1,2,5-thiadiazol-4-yl)-1-azabicyclo[3.2.1]octane, (+)-tartrate] | 69% | 210 nM |  |  | 
C(#Cc1ccccc1)COc1nsnc1[C@@H]1CN2CCC[C@H]1C2 [Compound 26, Endo (5R,6S)-6-(3-(3-Phenyl-2-propyn-1-yloxy)-1,2,5-thiadiazol-4-yl)-1-azabicyclo[3 2 1]octane, (+)-tartrate] | 93% | 280 nM |  |  | 
Fc1ccc(C#CCOc2nsnc2[C@@H]2CN3CCC[C@H]2C3)cc1 [Compound 27, Endo (5R,6S)-6-(3-(3-(4-Fluorophenyl)-2-propyn-1-yloxy)-1,2,5-thiadiazol-4-yl)-1-azabicyclo[3.2.1]octane, (+)-tartrate] | 79% | 187 nM |  |  | 
COc1cccc(C#CCOc2nsnc2[C@@H]2CN3CCC[C@H]2C3)c1 [Compound 28, Endo (5R,6S)-6-(3-(3-(3-Methoxyphenyl)-2-propyn-1-yloxy)-1,2,5-thiadiazol-4-yl)-1-azabicyclo[3.2.1]octane, (+)-tartrate] | 97% | 22 nM |  |  | 
C(#Cc1ccsc1)COc1nsnc1[C@@H]1CN2CCC[C@H]1C2.O=C(O)C(O)C(O)C(=O)O [Compound 30, Endo (5R,6S)-6-(3-[3-(3-Thienyl)-2-propyn-1-yloxy]-1,2,5-thiadiazol-4-yl)-1-azabicyclo[3.2.1]octane, (+)-tartrate] |  | 20 nM |  |  | 82%
C(#Cc1cccnc1)COc1nsnc1[C@@H]1CN2CCC[C@H]1C2 [Compound 31, Endo (5R,6S)-6-(3-[3-(3-Pyridyl)-2-propyn-1-yloxy]-1,2,5-thiadiazol-4-yl)-1-azabicyclo[3.2.1]octane, (+)-tartrate] |  |  | 26 nM |  | 
C(#Cc1ccccc1)CSc1nsnc1[C@H]1C[N@@]2CCC[C@H]1C2 [Compound 39, Exo (5R,6R)-6-(3-(3-Phenyl-2-propyn-1-ylthio)-1,2,5-thiadiazol-4-yl)-1-azabicyclo[3.2.1]octane. (+)-tartrate] | 105% | 0.2 nM |  |  | 
C(#Cc1ccccc1)COc1nsnc1[C@H]1C[N@@]2CCC[C@H]1C2 [Compound 40, Exo (5R,6R)-6-(3-(3-Phenyl-2-propyn-1-yloxy)-1,2,5-thiadiazol-4-yl)-1-azabicyclo[3.2.1]octane, oxalate] | 102% | 0.5 nM |  |  | 
COc1cccc(C#CCOc2nsnc2[C@H]2CN3CCC[C@H]2C3)c1 [Compound 41, Exo (5R,6R)-6-(3-(3-(3-Methoxyphenyl)-2-propyn-1-yfoxy)-1,2,5-thiadiazol-4-yl)-1-azabicyclo[3.2.1]octane, oxalate] | 100% | 2 nM |  |  | 
FC(F)(F)c1cccc(C#CCOc2nsnc2[C@H]2CN3CCC[C@H]2C3)c1 [Compound 42, Exo (5R,6R)-6-(3-(3-(3-Trifluoromethylphenyl)-2-propyn-1-yloxy)-1,2,5-thiadiazol-4-yl)-1-azabicyclo[3.2.1]octane, (+)-tartrate] | 99% | 12 nM |  |  | 
COc1cccc(C#CC(C)Oc2nsnc2[C@H]2CN3CCC[C@H]2C3)c1 (stereo partly drawn) [Compound 43, Exo (5R,6R)-6-(3-(3-(3-Methoxyphenyl)-1-methyl-2-propyn-1-yloxy)-1,2,5-thiadiazol-4-yl)-1-azabicyclo[3.2.1]octane, (+)-tartrate] | 85% | 9 nM |  |  | 
